# “And” between values parts separate entries of the source, which are not always exact repeats. Equal values may be shown once.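 Cells were grown in 96-well plates and exposed to each compound for 48 hours at five concentrations; endpoints were interpolated linearly between bracketing concentrations, or set to the highest concentration if not reached. GI50 = concentration required for 50% inhibition of growth. TGI is the concentration that stops growth completely.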
# System: LOX IMVI melanoma
# Experiment: inhibition of tumour cell growth, NCI panel, 48 h
SMILES,GI50 [µM],TGI
CC1(C)OC2C(CO[Si](C)(C)C(C)(C)C)OC(n3c(I)c(C#C[Si](C)(C)C)c(=O)[nH]c3=O)C2O1 (centres undefined),3.01,11.1 µM
CN(C)CC[C@H](CSc1ccccc1)Nc1ccc(S(=O)(=O)NC(=O)c2ccc(N3CCN(Cc4ccccc4-c4ccc(Cl)cc4)CC3)cc2)cc1[N+](=O)[O-],2.77,> 100 µM
COc1ccc(-c2ccc(=O)oc2C#Cc2cc(OC)c(OC)c(OC)c2)cc1O,0.399,> 100 µM
O=C(/C=C/c1ccc[nH]1)c1ccc(-n2ccc(C(F)(F)F)n2)cc1,> 100,> 100 µM
O=C(c1ccco1)c1c(C(F)(F)F)nc2ccc(Cl)cc2[n+]1[O-],> 100,> 100 µM
COc1ccc(-c2nnc3n(C)c(=O)c4ccccc4n23)cc1N,3.01,> 100 µM
Clc1cc2c(c(CSc3nc4ccccc4n4cccc34)c1)OCOC2,> 100,> 100 µM
CN1CCN(c2ccc(Nc3cc(-c4cccc(-n5ccc6cc(C7CC7)cc(F)c6c5=O)c4CO)cn(C)c3=O)nc2)CC1,3.4,12.7 µM
COc1ccc2nc3ccccc3c(NCc3ccc(F)cc3)c2c1,0.841,1.71 µM
CN(C)C1CCN(C(=O)c2ccc(NC(=O)Nc3ccc(-c4nc(N5CCOCC5)c5cccn5n4)cc3)cc2)CC1,0.0267,1.19 µM
COc1cc(N=Nc2ccc(O)c3ncccc23)c2ncccc2c1,2.13,> 100 µM
CCn1c(O)c(/C=N/NC(=O)C(C)c2ccc(CC(C)C)cc2)sc1=S (centres undefined),0.594,> 36.1 µM
C[C@@H]1C[C@@H]([C@@H](CC2CC(=O)NC(=O)C2)OC(=O)CC(=O)c2ccccc2)C(=O)[C@@H](C)C1,0.646,> 100 µM
Cc1nc(Nc2cccnc2)sc1C(=O)/C=C/c1ccc(F)cc1,2.36,6.52 µM
N=c1c2c(-c3ccccc3)c(-c3ccccc3)n(Cc3ccccc3)c2ncn1C1CCC(O)CC1 (centres undefined),0.14,1.69 µM
O=c1c(F)cn(Cc2ccc(C34CC5CC(CC(C5)C3)C4)c(O)c2)c(=O)n1Cc1ccc(C23CC4CC(CC(C4)C2)C3)c(O)c1,6.98,20 µM
CCOC(=O)Nc1cc2c(c(N)n1)N=C(c1ccccc1)CO2,0.368,> 100 µM
CC1CC2CCCC(O)=C2C(=O)O1 (centres undefined),–,> 100 µM
CC(C)(/C=C(\C#N)C(=O)N1CCC[C@@H](n2nc(-c3ccc(Oc4ccccc4)cc3F)c3c(N)ncnc32)C1)N1CCN(C2COC2)CC1,3.37,15.2 µM
O=c1oc2ccc(-c3ccc(F)cc3F)cc2c(=O)n1-c1cccc(C(F)(F)F)c1,1.61,5.55 µM

SMILES,GI50 [µM],TGI
COC(=O)c1ccc2c(c1)C(=O)c1c-2n(CCCN=[N+]=[N-])c(=O)c2cc(OC)c(OC)cc12,> 100,> 100 µM
O=C(Cc1ccc(F)c(Cl)c1)Nc1cc(C2(C(F)(F)F)CC2)nn1CC1CCCCC1,4.58,> 15 µM
NC1CCN(Cc2ccccc2)CC1,> 100,> 100 µM
N#Cc1nn(-c2cc(=O)[nH]c3ccc(Cl)cc23)c(N)c1C#N,> 100,> 100 µM
NNC(=O)CNc1cccc(Br)c1,–,> 100 µM
NC(N)=NCCCC(=O)O,–,> 100 µM
CCN1CCN(c2cc(C)c3cc(NC(=O)c4ccc(OC)c(OC)c4)ccc3n2)CC1,9.36,24.3 µM
COC(=O)c1c2c(c(C)[n+]([O-])c1C)C(=O)C=C(NCc1ccc(F)cc1)C2=O,0.224,2.09 µM
Nc1ncn([C@@H]2O[C@H](CO)[C@@H](O)[C@H]2O)c(=O)n1,0.292,2.1 µM
CCCC(=O)Nc1cn(COC)c(C(=O)N2C[C@@H]3C[C@]34C2=CC(=O)c2[nH]cc(C)c24)n1,–,21.9 µM and 53.8 µM
CC(=O)Nc1ccc(-c2csc(Nc3cccc(-c4csc(C)n4)c3)n2)cc1,0.375,10.1 µM
CNCCOC(=O)/C=C1\CC[C@H]2[C@@H]([C@@H](O)C(=O)[C@@H]3[C@]2(C)CC[C@H](O)[C@]3(C)C(=O)OC)[C@H]1C,0.357,1.38 µM
Cc1nnc(Nc2ccc(NC(=O)Nc3ccc(Cl)cc3)cc2)c2ccccc12,1.75,3.27 µM
CC(=O)ON1CCCC(P(=O)(OCCSC(=O)C(C)(C)C)OCCSC(=O)C(C)(C)C)C1=O (centres undefined),1.22,95.5 µM
C=CCC1(c2ccc(OC)cc2)C=CC(=O)CC1 (centres undefined),–,> 100 µM
COC(=O)[C@]12CC[C@@H](C)[C@H](C)[C@@H]1C1=CC[C@@H]3[C@@]4(C)C[C@@H](O)[C@H](O)[C@@](C)(CO)C4=CC[C@@]3(C)[C@]1(C)CC2,16.8,34.9 µM
COc1ccc(C(=O)Nc2ccc(O)c(=O)cc2)cc1,–,> 100 µM
Cc1nc(N)sc1N=Nc1ccccc1Br,–,> 66.1 µM
S=c1[nH]c(=S)c2cc3ccccc3nc2[nH]1,> 100,> 100 µM

# System: MDA-MB-435
# Experiment: inhibition of tumour cell growth, NCI panel, 48 h
SMILES,GI50 [µM],TGI [µM]
CC1(C)OC2C(CO[Si](C)(C)C(C)(C)C)OC(n3c(I)c(C#C[Si](C)(C)C)c(=O)[nH]c3=O)C2O1 (centres undefined),15.7,44.3
CN(C)CC[C@H](CSc1ccccc1)Nc1ccc(S(=O)(=O)NC(=O)c2ccc(N3CCN(Cc4ccccc4-c4ccc(Cl)cc4)CC3)cc2)cc1[N+](=O)[O-],2.47,> 34.6
O=C(/C=C/c1ccc[nH]1)c1ccc(-n2ccc(C(F)(F)F)n2)cc1,> 100,> 100
O=C(c1ccco1)c1c(C(F)(F)F)nc2ccc(Cl)cc2[n+]1[O-],> 100,> 100
COc1ccc(-c2nnc3n(C)c(=O)c4ccccc4n23)cc1N,0.0226,0.0799
Clc1cc2c(c(CSc3nc4ccccc4n4cccc34)c1)OCOC2,> 100,> 100
CN1CCN(c2ccc(Nc3cc(-c4cccc(-n5ccc6cc(C7CC7)cc(F)c6c5=O)c4CO)cn(C)c3=O)nc2)CC1,3.28,14
COc1ccc2nc3ccccc3c(NCc3ccc(F)cc3)c2c1,2.14,8.26
CN(C)C1CCN(C(=O)c2ccc(NC(=O)Nc3ccc(-c4nc(N5CCOCC5)c5cccn5n4)cc3)cc2)CC1,0.0403,0.492
COc1cnc2c(c1)C(=O)c1c-2n(CCCNC2=NCCS2)c(=O)c2cc([N+](=O)[O-])ccc12,0.478,2.29
COc1cc(N=Nc2ccc(O)c3ncccc23)c2ncccc2c1,4.64,> 100
C[C@@H]1C[C@@H]([C@@H](CC2CC(=O)NC(=O)C2)OC(=O)CC(=O)c2ccccc2)C(=O)[C@@H](C)C1,0.463,> 32.6
Cc1nc(Nc2cccnc2)sc1C(=O)/C=C/c1ccc(F)cc1,2.71,11.2
N=c1c2c(-c3ccccc3)c(-c3ccccc3)n(Cc3ccccc3)c2ncn1C1CCC(O)CC1 (centres undefined),0.346,4.89
O=c1c(F)cn(Cc2ccc(C34CC5CC(CC(C5)C3)C4)c(O)c2)c(=O)n1Cc1ccc(C23CC4CC(CC(C4)C2)C3)c(O)c1,14.4,29.2
CCOC(=O)Nc1cc2c(c(N)n1)N=C(c1ccccc1)CO2,0.0169,0.0399
CC1CC2CCCC(O)=C2C(=O)O1 (centres undefined),–,> 100

# From PubChem BioAssay (NCI)
